Measured values reported in patent EP4623928A1, “GLP-1R ANTAGONISTS FOR THE TREATMENT OF CANCER” (Fiorina, Paolo, priority 2024, dated 2025).

Columns and labels:
[1] = tested on: untransduced-mock and pmY-GLP-1R transduced CD3^+ T cells; assay: Proliferation, apoptosis and IFN-γ expression of untransduced-mock and pmY-GLP-1R transduced CD3+ T cells; format: cell-based, murine; details: Exe-4
Experimental: The mGLP-1R cDNA construct (Origene) was inserted into the pMY-IRES-GFP plasmid (Cell BioLabs, Inc., San Diego, CA). The Platinum-E Retroviral Packaging cell line was transfected with the pMY-IRES-GFP plasmid expressing GLP-1R using polybrene (Santa Cruz Biotechnology), and supernatant was collected. T cells were activated for 48 hours in the presence of soluble anti-CD3/CD28 at 0.5 µg/ml each in the presence of IL-2 (400 ng/ml) (R&D Systems), and viral supernatant was added. The upregulation of GLP-1R was assessed by FACS and western blot analysis.

[2] = tested on: GLP-1R^pos and GLP-1R^neg CD3^+ T cells; assay: Proliferation, apoptosis and IFN-γ expression of GLP-1Rpos and GLP-1Rneg CD3+ T cells stimulated with anti-CD3/anti-CD28; format: cell-based, C57BL/6 mice; details: for proliferation rate: anti-CD3/anti-CD28
Experimental: FACS analysis was performed with a FACSCelesta (BD Bioscience) on murine splenocytes or on single cells suspension prepared upon collagenase-digestion of grafted organs. We used the following antibodies: APC conjugated Rat anti-mouse CD62L, PE conjugated Rat anti-mouse CD44, PerCp conjugated Rat anti-mouse CD4 or PerCp conjugated Rat anti-mouse CD8, (Biolegend, San Diego, CA, USA), and APC conjugated anti-mouse/human insulin (R&D, Minneapolis, MN - USA). GLP-1R was detected by indirect staining; the primary antibody was purchased from Alomone Lab (Jerusalem, Israel) and variably associated with FITC or APC-conjugated anti-isotype Ab (BD and Biolegend respectively). For intracellular staining, splenocytes were isolated from BL6 mice were incubated with and w/o anti CD3/CD28 used both at 0.5 µg/ml, Exe-4 (0.1nM, 1nM and 10nM) or with Exe-4+Exe-9-39 (0.1nM, 1nM and 10nM). After 24hours incubation, cells were collected, washed and plated in RPMI 10% FBS, then stimulated with 50 ng/ml PMA (Sigma Aldrich), 500 ng/ml ionomycin (Sigma Aldrich) and Golgi Stop as recommended by the manufacturer (BD Biosciences, San Diego, CA, USA) for 4h in a humidified incubator 37°C, 5% CO2. After incubation, cells were collected, washed and stained for surface markers, i.e CD4 BUV737, CD8 BUV395, (BD Biosciences, San Diego, CA, USA) and GLP-1R FITC (Alomone Lab, Jerusalem, Israel). They were further fixed, permeabilized using the BD Cytofix/Cytoperm Kit (BD Biosciences, San Diego, CA, USA), and stained with a mAb against IFN-γ (eBioscience). Finally, CD4^+ GLP-1R^+ IFN-γ^+ and CD8^+ GLP-1R^+ IFN-γ ^+ T cells were assessed by flow cytometry analysis. For the expression of GLP-1R on innate immune cells, the following antibodies were used: CD4 BB700, NK1.1 BV421, CD127 BV605, CD44 PE, GLP-1R FITC/PD1 FITC, Viability Dye BV510 (NKT subset); CD45 BV786, CD3 BB700, NK1.1 BV421, GLP-1R FITC/PD1 FITC, Viability Dye BV510 (NK subset); CD45 BB700, CD11c BV786, CD11b BV421, GLP-1R FITC/PD1 FITC, Viability Dye BV510; CD45 PE-CF594, CD127 BV605, NK1.1 BV421, CD335 BV786, CD49a BV650, CD117 BB700, IL33R PE, IL23R BV711, GLP-1R FITC/PD1 FITC, Viability Dye BV510 (LCs subset). For the determination of the chemokine receptors profile of GLP-1R^+ CD3^+ T cells, the following antibodies were used: GLP-1R FITC, CXCR4 PE, CX3CR1 BV605, CCR2 BV421, CCR5 BV650, CCR7 BV786, CXCR3 BB700, CXCR6 BV711, Viability Dye BV510.

effector T cells = assay: Effector T cell suppression by iTregs generated with Exe-4 (CTV dilution); format: cell-based; details: iTregs generated in the presence of Exe-4, ratio of 1: 4 to effector T cells, vs untreated-iTregs
islet allografts = assay: Murine islet allotransplantation (BALB/c islets into STZ-treated C57BL/6 mice); format: in vivo
Experimental: Pancreatic islets from BALB/c mice were isolated by collagenase digestion and density gradient separation as previously described (33, 34). Subsequently, four to five hundred islets were inoculated under the renal capsule of each C57BL/6 recipient rendered diabetic with streptozotocin (STZ) (200 mg/kg, administered i.p. Sigma-Aldrich). Islet transplantation success was confirmed by glycaemia normalization. Rejection of islet allografts was defined as blood glucose levels >250 mg/dl for at least 2 consecutive days (35). Treatment modalities were the following: transplanted mice were intraperitoneally injected according to the following protocols: 1) Exendin-4 (Exe-4) (Amylin Pharmaceuticals, San Diego, CA -USA) 0.2pg twice/day for two weeks after transplant; 2) Exe-4 0.2pg twice/day from the day before until two weeks after transplant; 3) Exendin-4 2µg twice/day from the day before until two weeks after transplant; 4) Exendin-4 2µg twice/day + Exendin-9-39 (Exe-9) (Sigma-Aldrich) 2µg twice/day from the day before until two weeks after transplant; 5) Exendin-4 2µg twice/day from the day before until two weeks after transplant + Rapamycin 0.1mg/die for two weeks; 6) saline 0.5ml twice/day for two weeks. The follow-up of the transplanted mice was for 100 days.

CD3^+ T cells = assay: Phosphoproteomic array of CD3+ T cells; format: cell-based, murine; details: Exe-4 (1 nM), 24 hours, vs untreated
Experimental: Isolated CD3^+ T cells from splenocytes were treated with Exendin-4 (Exe-4) for 24hrs or left untreated. Total soluble proteins from both cell extracts, approximately 7×10^6 cells per conditions were used, all steps were performed using the Phospho Explorer Antibody Array kit (Full Moon Biosystems, PEX100) as recommended by the manufacturer (41). Next, soluble extracted proteins were biotinylated and were next incubated with a mixture of Cy3-streptavidin-detection buffer and the array slides were incubated on a rotating shaker for 30 min at RT. After, several washing steps, the array slides were allowed to dry by centrifugation. Dry array slides were analyzed by a slide-based microarray scanner as recommended by the manufacturer.

[3] = both untransduced-mock and pmY-GLP-1R transduced CD3^+ T cells

For Exendin-4 [Exe-4], the IFN-γ expression [1, 3] was “without any effect”, the proliferation [1, 3] was “no effect” and the apoptosis ([1]; pmY-GLP-1R transduced CD3^+ T cells only) was “significantly increased”. For the same substance, the proliferation rate ([2]; GLP-1R^neg CD3^+ T cells, Exe-4 (1 nM)) was “but not of GLP-1R^neg CD3^+ T cells”, the proliferation rate ([2]; GLP-1R^pos CD3^+ T cells, Exe-4 (1 nM)) was “slightly modulated” and the IFN-y expression ([2]; GLP-1R^pos and GLP-1R^neg CD3^+ T cells, Exe-4 (1 nM)) was “no evident effect”. The “apoptosis (GLP-1R^pos more apoptotic than GLP-1R^neg)” value ([2]; GLP-1R^pos vs GLP-1R^neg CD3^+ T cells, with or without Exe-4) was “independently of Exe-4 treatment”, the “suppression of effector T cells by iTregs” value (effector T cells) was “significantly reduced suppression” and the “recipients with prolongation of islet survival up to 100 days” value (islet allografts; high doses of Exe-4 preceded by a pre-treatment) was 60%. For the same substance, the “[MST] (islet allograft survival)” value (islet allografts; high doses of Exe-4 preceded by a pre-treatment (2µg twice/day, i.p.), p<0.001 vs untreated) was 67 days, the “graft infiltration (Hematoxylin and eosin staining)” value (islet allografts; islet allograft at day 14, Exe-4-treated mice) was “decreased graft infiltration” and the “recipients with prolongation of islet survival up to 100 days” value (islet allografts; low dose of Exe-4) was 20%. The “[MST] (islet allograft survival)” value (islet allografts; low dose of Exe-4 (b66 prints 0.2pg twice/day, i.p.), untreated [MST]=12 days, p=0.001) was 41 days, the “CD8^+ effector memory cells” value (islet allografts; splenic, Exe-4 treatment) was “reduction” and the Treg lymphocytes (islet allografts; splenic, Exe-4 treatment) was “significant increase”. For the same substance, the “expression and activation of signalling molecules (phosphoproteomic arrays)” value (CD3^+ T cells) was “altered the expression and the activation of several signalling molecules”.
